Test results from paper PMC11173382, “In Vitro Investigations into the Potential Drug Interactions of Pseudoginsenoside DQ Mediated by Cytochrome P450 and Human Drug Transporters” (Molecules, 2024).
Where two headings read alike, the source gives them in different places.

Key:
Type in all cases: in vitro ADME
[1] = target: T1, CYP2C8 (Homo sapiens, UniProt P10632); assay: CYP450 inhibition assay in human liver microsomes, CYP2C8; settings: HLM 0.1 mg/mL; probe amodiaquine 2 µM; 10 min
T1 sequence (P10632 1-490): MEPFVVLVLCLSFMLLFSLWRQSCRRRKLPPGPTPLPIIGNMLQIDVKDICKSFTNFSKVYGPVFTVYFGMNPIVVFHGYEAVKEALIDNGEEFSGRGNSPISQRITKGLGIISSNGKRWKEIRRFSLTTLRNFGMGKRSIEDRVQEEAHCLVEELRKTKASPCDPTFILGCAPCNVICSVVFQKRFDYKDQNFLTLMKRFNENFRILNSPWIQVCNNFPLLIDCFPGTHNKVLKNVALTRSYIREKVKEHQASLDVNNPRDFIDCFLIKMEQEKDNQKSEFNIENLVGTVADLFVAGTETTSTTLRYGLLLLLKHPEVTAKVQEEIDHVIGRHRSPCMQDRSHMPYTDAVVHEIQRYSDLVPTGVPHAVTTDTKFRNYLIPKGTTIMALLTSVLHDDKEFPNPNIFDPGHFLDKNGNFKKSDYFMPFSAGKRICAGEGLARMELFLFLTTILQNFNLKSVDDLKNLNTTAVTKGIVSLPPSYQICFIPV
Method: (§1) To evaluate the reliability and reproducibility of the CYP450 inhibition assay, we measured the inhibitory effects of selected positive control inhibitors of each CYP450 enzyme in human liver microsomes (HLM, Table 1, Figure 2). The potency of inhibition was estimated by observing the alteration in concentration of metabolites of CYP450 substrates (Table 1).
(§2) Reagents preparation. […] The stock solution of PDQ (10 mM) was prepared with methanol and further diluted to the range of 3 µM to 3 mM with methanol to ensure that the solvent of different PDQ samples contained the same amount (1%) of methanol.
(§3) The stock solutions of the positive control inhibitors and the probe substrates of CYP450 enzymes were prepared in methanol.
(§4) CYP450 inhibition assay. […] The assay was conducted in polypropylene 96-well plates (2.2 mL/well, Apricot Designs Inc., Covina, CA, USA).
(§5) The total volume of the reaction is 200 μL. […] The substrates and analytes were analyzed by LC-MS/MS (API4000, Applied Biosystems, Singapore; HPLC, Shimadzu, Japan). […]
(§6) Data analysis. […] The IC50 was determined by fitting the dependence of the relative remaining activity (y = Vi/V0) to the following three-parameter equation (Equation (1)). […]

[2] = target: T2, CYP3A4 (Homo sapiens, UniProt P08684); assay: CYP450 inhibition assay in human liver microsomes, CYP3A4 (midazolam and testosterone)
T2 construct: tissue Corning 452117; host or cells: human liver microsomes
Method: as §1, §2, §3, §4
The total volume of the reaction is 200 μL. The HLM mixtures (102 μL) containing individual probe substrates (Table 3), KH2PO4 buffer (100 mM, pH 7.4), and either PDQ or the positive control inhibitors (Table 3) were incubated for 10 min at 37 °C in a shaking incubator. Reactions were initiated by adding 98 μL NADPH (final concentration is 1.3 mM NADPH, 3 mM MgCl2 in 100 mM KH2PO4 buffer). The HLM reaction mixtures were shaken at 37 °C for various times (Table 4). The reaction time of CYP3A4 (midazolam), CYP2C19 and CYP2D6 were 3, 20 and 20 min, respectively, while the reactions of other CYP enzymes were terminated after 10 min. The reactions were quenched by adding 200 μL acetonitrile containing 3% formic acid and specific internal standards (Table 4). After shaking at 1000 rpm for 10 min, the reaction mixtures were centrifuged at 4000 rpm for 20 min. Supernatants were diluted with ultrapure water (Table 4) and shaken for 10 min at 1000 rpm. […] The substrates and analytes were analyzed by LC-MS/MS (API4000, Applied Biosystems, Singapore; HPLC, Shimadzu, Japan). […]
as §6

[3] = target: T3, hOATP1B1 (Homo sapiens, UniProt Q9Y6L6); assay: Substrates uptake assay, HEK293A-OATP1B1 cells (3H-ES); settings: HEK293A-OATP1B1; 3H-ES 0.1 µM; 2 min
T3 sequence (Q9Y6L6 1-691): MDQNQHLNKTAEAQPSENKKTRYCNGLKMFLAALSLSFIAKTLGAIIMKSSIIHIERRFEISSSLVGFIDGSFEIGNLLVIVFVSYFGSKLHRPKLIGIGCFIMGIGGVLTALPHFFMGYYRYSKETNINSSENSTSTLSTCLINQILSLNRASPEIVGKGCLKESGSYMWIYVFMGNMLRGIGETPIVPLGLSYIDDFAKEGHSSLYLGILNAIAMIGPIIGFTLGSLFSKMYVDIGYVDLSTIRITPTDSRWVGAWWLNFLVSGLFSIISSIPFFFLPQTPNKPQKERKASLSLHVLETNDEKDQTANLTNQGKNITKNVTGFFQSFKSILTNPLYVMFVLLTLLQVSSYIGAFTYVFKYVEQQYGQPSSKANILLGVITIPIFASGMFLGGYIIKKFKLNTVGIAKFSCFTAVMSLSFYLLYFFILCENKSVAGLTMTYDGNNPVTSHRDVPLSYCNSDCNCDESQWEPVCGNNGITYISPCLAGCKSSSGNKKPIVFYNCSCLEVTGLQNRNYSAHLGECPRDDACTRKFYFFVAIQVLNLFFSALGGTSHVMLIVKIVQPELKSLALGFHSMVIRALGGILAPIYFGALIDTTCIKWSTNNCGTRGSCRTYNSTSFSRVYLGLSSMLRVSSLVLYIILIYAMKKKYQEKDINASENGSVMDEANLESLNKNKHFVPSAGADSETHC

[4] = target: T4, CYP2C19 (Homo sapiens, UniProt P33261); assay: CYP450 inhibition assay in human liver microsomes, CYP2C19; settings: HLM 0.1 mg/mL; probe S-mephenytoin 20 µM; 20 min
T4 construct: tissue Corning 452117; host or cells: human liver microsomes
Method: as §1, §2, §3, §4, §5, §6

T2 sequence (P08684 whole entry): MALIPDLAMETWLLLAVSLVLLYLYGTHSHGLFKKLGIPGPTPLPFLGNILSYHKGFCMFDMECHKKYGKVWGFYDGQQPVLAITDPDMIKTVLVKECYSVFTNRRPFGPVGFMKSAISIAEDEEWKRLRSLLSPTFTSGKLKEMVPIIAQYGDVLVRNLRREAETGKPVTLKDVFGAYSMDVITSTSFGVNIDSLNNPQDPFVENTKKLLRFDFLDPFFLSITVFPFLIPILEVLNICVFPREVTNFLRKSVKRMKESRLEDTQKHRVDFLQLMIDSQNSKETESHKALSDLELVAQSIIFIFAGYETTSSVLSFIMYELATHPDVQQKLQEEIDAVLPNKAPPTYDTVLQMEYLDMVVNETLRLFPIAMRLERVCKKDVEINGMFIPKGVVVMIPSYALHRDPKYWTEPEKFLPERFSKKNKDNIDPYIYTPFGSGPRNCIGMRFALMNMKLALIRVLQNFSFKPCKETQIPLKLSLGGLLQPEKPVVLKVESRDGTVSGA
T4 sequence (P33261 whole entry): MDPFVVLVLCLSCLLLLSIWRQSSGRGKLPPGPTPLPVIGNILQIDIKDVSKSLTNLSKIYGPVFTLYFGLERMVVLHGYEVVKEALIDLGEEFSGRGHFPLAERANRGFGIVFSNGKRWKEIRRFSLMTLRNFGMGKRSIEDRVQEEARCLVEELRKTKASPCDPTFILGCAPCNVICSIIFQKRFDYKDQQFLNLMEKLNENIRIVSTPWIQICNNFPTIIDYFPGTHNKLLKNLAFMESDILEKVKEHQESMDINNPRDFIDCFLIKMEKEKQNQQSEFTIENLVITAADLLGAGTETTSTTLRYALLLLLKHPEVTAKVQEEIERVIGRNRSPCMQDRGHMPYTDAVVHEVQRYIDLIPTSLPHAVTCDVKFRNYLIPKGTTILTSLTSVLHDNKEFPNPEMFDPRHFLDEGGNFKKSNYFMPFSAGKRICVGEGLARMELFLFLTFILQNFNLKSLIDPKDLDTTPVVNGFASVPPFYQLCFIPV

SMILES: CC(C)(O)[C@@H]1CC[C@@](C)([C@H]2CC[C@]3(C)[C@@H]2[C@H](O)C[C@@H]2[C@@]4(C)CC[C@H](O)C(C)(C)[C@@H]4CC[C@]23C)O1 [PDQ, (20S,24S)-dammar-20,24-epoxy-3β, 12β, 25-triol]
- IC50 [1]: 16.4 µM
- IC50 ([2]; HLM 0.1 mg/mL, probe midazolam 2 µM, 3 min, read-out: IC50 on CYP3A4 (Midazolam)): 2.02 µM
- IC50 ([2]; HLM 0.1 mg/mL, probe testosterone 40 µM, 10 min, read-out: IC50 on CYP3A4 (Testosterone)): 6.79 µM
- IC50 ([2]; HLM, midazolam and testosterone as substrates, read-out: IC50 on CYP3A4 (range over both substrates)): 2.02 to 6.79 µM
- IC50 [3]: 13.1 µM
- IC50 [4]: 0.698 µM
